Source: patent publication US20240383898A1, “PYRIDO RING COMPOUND, PREPARATION METHOD THEREFOR, INTERMEDIATE, COMPOSITION, AND APPLICATION” (YIYOU BIOTECH (SHANGHAI) CO., LTD, priority 2021, published 2024)

What was measured:
JAK1 = molecular target: T1, JAK1 (Homo sapiens, UniProt P23458); test: In vitro activity test of JAK1 kinase (Caliper EZ Reader conversion assay); assay type: biochemical; conditions: enzyme activity, 10 concentrations from 1000 nM, 3-fold dilution
T1 construct: purchased Carna 08-114
T1 sequence (P23458 whole entry, species assumed): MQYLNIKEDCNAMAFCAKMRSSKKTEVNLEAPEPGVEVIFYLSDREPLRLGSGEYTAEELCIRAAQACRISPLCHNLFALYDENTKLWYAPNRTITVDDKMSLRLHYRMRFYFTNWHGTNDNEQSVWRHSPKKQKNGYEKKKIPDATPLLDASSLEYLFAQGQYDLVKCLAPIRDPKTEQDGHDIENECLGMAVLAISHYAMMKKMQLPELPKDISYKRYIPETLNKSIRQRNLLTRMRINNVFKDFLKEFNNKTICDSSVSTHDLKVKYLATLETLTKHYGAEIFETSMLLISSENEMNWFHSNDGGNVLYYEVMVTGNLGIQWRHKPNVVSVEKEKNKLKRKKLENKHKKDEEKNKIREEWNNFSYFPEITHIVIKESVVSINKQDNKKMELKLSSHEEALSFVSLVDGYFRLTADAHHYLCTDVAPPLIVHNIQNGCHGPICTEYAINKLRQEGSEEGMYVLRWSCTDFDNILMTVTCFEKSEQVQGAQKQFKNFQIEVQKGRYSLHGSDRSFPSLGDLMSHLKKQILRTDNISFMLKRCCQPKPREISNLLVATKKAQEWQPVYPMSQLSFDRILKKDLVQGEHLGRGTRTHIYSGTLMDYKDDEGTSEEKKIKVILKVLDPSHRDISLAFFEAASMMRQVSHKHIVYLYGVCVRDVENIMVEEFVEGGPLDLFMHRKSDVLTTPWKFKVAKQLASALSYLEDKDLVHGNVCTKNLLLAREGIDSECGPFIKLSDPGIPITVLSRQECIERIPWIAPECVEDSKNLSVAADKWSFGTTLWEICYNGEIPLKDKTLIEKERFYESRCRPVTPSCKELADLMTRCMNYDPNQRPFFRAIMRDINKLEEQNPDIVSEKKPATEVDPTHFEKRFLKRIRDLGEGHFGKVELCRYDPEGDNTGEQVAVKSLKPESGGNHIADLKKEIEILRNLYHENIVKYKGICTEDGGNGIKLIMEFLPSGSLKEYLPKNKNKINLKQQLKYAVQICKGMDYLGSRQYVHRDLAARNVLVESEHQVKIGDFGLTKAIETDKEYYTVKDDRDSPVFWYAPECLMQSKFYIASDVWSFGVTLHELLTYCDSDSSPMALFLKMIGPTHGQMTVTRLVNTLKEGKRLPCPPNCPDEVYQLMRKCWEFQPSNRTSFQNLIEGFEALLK
Method: (§1) In Vitro Activity Test of JAK1 and JAK2 Kinases
(§2) • Centrifuge (manufacturer: Eppendorf, model: 5430) • ELISA Instrument (Manufacturer: Perkin Elmer, Model: Caliper EZ Reader 1I) • Echo 550 (Manufacturer: Labcyte, Model: Echo 550)
(§3) (1) Prepare 1 Kinase buffer.
(§4) (2) Compound concentration gradient preparation: The test compound was tested at 1000 nM, 3-fold dilution, 10 concentrations, two-well assay, and configured to a 100-fold final concentration in a 384-well plate. 250 nl of the test compound was then transferred to the 384 reaction plate using Echo550. 250 nl of 100% DMSO was added to each of the negative and positive control wells.
(§5) (3) Prepare 2.5 times the final concentration of kinase solution with 1×Kinase buffer.
(§6) (4) Add 10 μL of 2.5 times the final concentration of kinase solution to the compound wells and 10 μL of 1×Kinase buffer to the negative control wells.
(§7) (5) Centrifuge at 1000 rpm for 30 seconds, mix well with shaking, and incubate at room temperature for 10 minutes.
(§8) (6) Prepare a 25/15-fold final concentration of mixture of ATP and Kinase substrate with 1×Kinase buffer.
(§9) (7) Add 15 μL of a mixture of 25/15 times the final concentration of ATP and substrate to start the reaction.
(§10) (8) Centrifuge the 384-well plate at 1000 rpm for 30 seconds, mix well with shaking, and incubate at room temperature for an appropriate amount of time.
(§11) (9) Stop the kinase reaction by adding 30 μL of termination solution, centrifuge at 1000 rpm for 30 seconds, and mix well with shaking.
(§12) (10) Read the conversion rate with Caliper EZ Reader.
(§13) where: Conversion %_sample is the conversion rate reading of the sample-, Conversion %_min: the average value of the negative control wells, representing the conversion reading of the wells without enzyme activity: Conversion %-max: the average value of the positive control wells, representing the conversion reading of the wells without compound inhibition.
(§14) The log value of concentration was used as the X-axis and the percentage inhibition as the Y-axis, and the function of the analytical software GraphPad Prism 5; log(inhibitor) vs. response -Variable slope, was used to lit dose-effect curves to obtain the IC50) values of each compound on enzyme activity.
(§15) The formula is Y=Bottom+(Top-Bottom)/(1+10^((LogIC50-X)*HillSlope))
(§16) The 1C50 data are specified in Table 1.

JAK2 = molecular target: T2, JAK2 (Homo sapiens, UniProt O60674); test: In vitro activity test of JAK2 kinase (Caliper EZ Reader conversion assay); assay type: biochemical; conditions: enzyme activity, 10 concentrations from 1000 nM, 3-fold dilution
T2 construct: purchased Carna 08-045
T2 sequence (O60674 whole entry, species assumed): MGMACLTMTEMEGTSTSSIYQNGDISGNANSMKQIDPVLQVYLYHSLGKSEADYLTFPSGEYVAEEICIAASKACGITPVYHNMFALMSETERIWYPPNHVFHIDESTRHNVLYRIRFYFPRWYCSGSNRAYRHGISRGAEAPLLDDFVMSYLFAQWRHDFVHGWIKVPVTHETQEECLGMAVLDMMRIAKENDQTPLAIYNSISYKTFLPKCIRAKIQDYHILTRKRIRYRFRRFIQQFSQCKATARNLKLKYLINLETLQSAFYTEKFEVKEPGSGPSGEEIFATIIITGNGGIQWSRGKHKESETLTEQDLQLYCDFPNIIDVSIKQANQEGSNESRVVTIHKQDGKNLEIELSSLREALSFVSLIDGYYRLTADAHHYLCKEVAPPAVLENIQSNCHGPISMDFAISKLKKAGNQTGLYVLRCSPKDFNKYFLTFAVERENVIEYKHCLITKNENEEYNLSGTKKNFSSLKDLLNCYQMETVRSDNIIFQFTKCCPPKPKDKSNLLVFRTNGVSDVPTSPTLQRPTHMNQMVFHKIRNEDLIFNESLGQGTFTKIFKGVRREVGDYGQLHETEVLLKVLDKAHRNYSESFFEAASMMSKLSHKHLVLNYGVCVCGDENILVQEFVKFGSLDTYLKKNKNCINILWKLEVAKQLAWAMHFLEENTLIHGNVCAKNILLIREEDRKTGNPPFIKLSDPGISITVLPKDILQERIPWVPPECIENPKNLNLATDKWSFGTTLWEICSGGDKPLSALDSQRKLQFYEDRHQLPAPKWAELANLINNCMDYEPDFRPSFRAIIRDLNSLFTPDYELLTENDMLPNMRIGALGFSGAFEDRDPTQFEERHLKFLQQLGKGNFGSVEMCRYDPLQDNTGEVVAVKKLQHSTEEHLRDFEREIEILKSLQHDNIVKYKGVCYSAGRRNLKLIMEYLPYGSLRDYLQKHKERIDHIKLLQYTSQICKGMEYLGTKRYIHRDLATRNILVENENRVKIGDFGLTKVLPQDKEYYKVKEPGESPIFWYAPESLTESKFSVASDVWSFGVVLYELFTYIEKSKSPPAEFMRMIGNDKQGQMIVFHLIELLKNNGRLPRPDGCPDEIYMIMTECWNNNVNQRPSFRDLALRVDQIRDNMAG
Method: as §1, §2, §3, §4, §5, §6, §7, §8, §9, §10, §11, §12, §13, §14, §15, §16

Compound | IC50 (JAK1) | IC50 (JAK2)
Cc1ccc(S(=O)(=O)N2CCC(n3c([C@@H](C)O)nc4cnc5[nH]ccc5c43)C2)cc1 (stereo partly drawn) [LXS08, (1R)-1-(1-(1-tosylpyrrolidin-3-yl)-1,6-dihydroimidazo[4,5-d]pyrrolo[2,3-b]pyridin-2-yl)ethan-1-ol] | 100 to 1000 nM | 100 to 1000 nM
C[C@@H](O)c1nc2cnc3[nH]ccc3c2n1C1CCN(S(=O)(=O)c2ccc(-c3ccccc3)cc2)C1 (stereo partly drawn) [LXS09, (1R)-1-(1-(1-([1,1′-biphenyl]-4-ylsulfonyl)pyrrolidin-3-yl)-1,6-dihydroimidazo[4,5-d]pyrrolo[2,3-b]pyridin-2-yl)ethan-1-ol] | 100 to 1000 nM | > 1000 nM
C[C@@H](O)c1nc2cnc3[nH]ccc3c2n1C1CCN(S(=O)(=O)c2ccc3ccccc3c2)C1 (stereo partly drawn) [LXS10, (1R)-1-(1-(1-(naphthalen-2-ylsulfonyl)pyrrolidin-3-yl)-1,6-dihydroimidazo[4,5-d]pyrrolo[2,3-b]pyridin-2-yl)ethan-1-ol] | 100 to 1000 nM | > 1000 nM
CCS(=O)(=O)N1CC(CC#N)(n2cc(-n3c(-c4ccc(CO)o4)nc4cnc5[nH]ccc5c43)cn2)C1 [LXS13, 2-(1-(ethylsulfonyl)-3-(4-(2-(5-(hydroxymethyl)furan-2-yl)imidazo[4,5-d]pyrrolo[2,3-b]pyridin-1(6H)-yl)-1H-pyrazol-1-yl)azetidin-3-yl)acetonitrile] | 100 to 1000 nM | 10 to 100 nM
CCCCS(=O)(=O)N1CC(CC#N)(n2cc(-n3c(-c4ccc(CO)o4)nc4cnc5[nH]ccc5c43)cn2)C1 [LXS15, 2-(1-(butylsulfonyl)-3-(4-(2-(5-(hydroxymethyl)furan-2-yl)imidazo[4,5-d]pyrrolo[2,3-b]pyridin-1(6H)-yl)-1H-pyrazol-1-yl)azetidin-3-yl)acetonitrile] | 100 to 1000 nM | 10 to 100 nM
CCCS(=O)(=O)N1CCC(n2c(-c3ccccc3O)nc3cnc4[nH]ccc4c32)C1 (stereo not drawn) [LXS30, 2-(1-(1-(propylsulfonyl)pyrrolidin-3-yl)-1,6-dihydroimidazo[4,5-d]pyrrolo[2,3-b]pyridin-2-yl)phenol] | 100 to 1000 nM | 100 to 1000 nM
CCCS(=O)(=O)N1CCC(n2c(-c3ccc(O)cc3O)nc3cnc4[nH]ccc4c32)C1 (stereo not drawn) [LXS31, 4-(1-(1-(Propylsulfonyl)pyrrolidin-3-yl)-1,6-dihydroimidazo[4,5-d]pyrrolo[2,3-b]pyridin-2-yl)benzene-1,3-diol] | 100 to 1000 nM | 100 to 1000 nM
O=C(NCC(F)(F)F)N1CCC(n2c(-c3cccc(O)c3)nc3cnc4[nH]ccc4c32)C1 (stereo not drawn) [LXS34, 3-(2-(3-Hydroxyphenyl)imidazo[4,5-d]pyrrolo[2,3-b]pyridin-1(6H)-yl)-N-(2,2,2-trifluoroethyl)pyrrolidine-1-carboxamide] | 100 to 1000 nM | 100 to 1000 nM
CCCS(=O)(=O)N1CCC(n2c(-c3cccnc3N)nc3cnc4[nH]ccc4c32)C1 (stereo not drawn) [LXS47, 3-(1-(1-(propylsulfonyl)pyrrolidin-3-yl)-1,6-dihydroimidazo[4,5-d]pyrrolo[2,3-b]pyridin-2-yl)pyridin-2-amine] | 100 to 1000 nM | 100 to 1000 nM
Cc1ccc(-c2nc3cnc4[nH]ccc4c3n2-c2cnn(CCC#N)c2)o1 [LXS50, 3-(4-(2-(5-Methylfuran-2-yl)imidazo[4,5-d]pyrrolo[2,3-b]pyridin-1(6H)-yl)-1H-pyrazol-1-yl)propanenitrile] | 100 to 1000 nM | < 10 nM
N#CCN1CCC(n2c(-c3ccc(CO)o3)nc3cnc4[nH]ccc4c32)C1 (stereo not drawn) [LXS52, 2-(3-(2-(5-(hydroxymethyl)furan-2-yl)imidazo[4,5-d]pyrrolo[2,3-b]pyridin-1(6H)-yl)pyrrolidin-1-yl)acetonitrile] | 100 to 1000 nM | 10 to 100 nM

The next lines start with the values.

IC50 (JAK1) | IC50 (JAK2) | Compound
10 to 100 nM | 100 to 1000 nM | CCCS(=O)(=O)N1CCC(n2c([C@@H](C)O)nc3cnc4[nH]ccc4c32)C1 (stereo partly drawn) [LXS05, (1R)-1-(1-(1-(propylsulfonyl)pyrrolidin-3-yl)-1,6-dihydroimidazo[4,5-d]pyrrolo[2,3-b]pyridin-2-yl)ethan-1-ol]
10 to 100 nM | 100 to 1000 nM | CCCCS(=O)(=O)N1CCC(n2c([C@@H](C)O)nc3cnc4[nH]ccc4c32)C1 (stereo partly drawn) [LXS06, (1R)-1-(1-(1-(butylsulfonyl)pyrrolidin-3-yl)-1,6-dihydroimidazo[4,5-d]pyrrolo[2,3-b]pyridin-2-yl)ethan-1-ol]
100 to 1000 nM | 100 to 1000 nM | C[C@@H](O)c1nc2cnc3[nH]ccc3c2n1C1CCN(S(=O)(=O)c2ccccc2F)C1 (stereo partly drawn) [LXS07, (1R)-1-(1-(1-((2-fluorophenyl)sulfonyl)pyrrolidin-3-yl)-1,6-dihydroimidazo[4,5-d]pyrrolo[2,3-b]pyridin-2-yl)ethan-1-ol]
10 to 100 nM | 100 to 1000 nM | C[C@@H](O)c1nc2cnc3[nH]ccc3c2n1C1CCN(S(=O)(=O)c2ccc(OC(F)(F)F)cc2)C1 (stereo partly drawn) [LXS11, (1R)-1-(1-(1-((4-(trifluoromethoxy)phenyl)sulfonyl)pyrrolidin-3-yl)-1,6-dihydroimidazo[4,5-d]pyrrolo[2,3-b]pyridin-2-yl)ethan-1-ol]
10 to 100 nM | 100 to 1000 nM | C[C@@H](O)c1nc2cnc3[nH]ccc3c2n1C1CCN(S(=O)(=O)c2cccs2)C1 (stereo partly drawn) [LXS12, (1R)-1-(1-(1-(thiophen-2-ylsulfonyl)pyrrolidin-3-yl)-1,6-dihydroimidazo[4,5-d]pyrrolo[2,3-b]pyridin-2-yl)ethan-1-ol]
10 to 100 nM | 10 to 100 nM | CCCS(=O)(=O)N1CCC(n2c(-c3ccc(CO)o3)nc3cnc4[nH]ccc4c32)C1 (stereo not drawn) [LXS16]
10 to 100 nM | 10 to 100 nM | O=C(C1CC1)N1CCC(n2c(-c3ccc(CO)o3)nc3cnc4[nH]ccc4c32)C1 (stereo not drawn) [LXS17, Cyclopropyl(3-(2-(5-(hydroxymethyl)furan-2-yl)imidazo[4,5-d]pyrrolo[2,3-b]pyridin-1(6H)-yl)pyrrolidin-1-yl) methanone]
10 to 100 nM | 10 to 100 nM | CCCS(=O)(=O)N1CCC(n2c(-c3ncc[nH]3)nc3cnc4[nH]ccc4c32)C1 (stereo not drawn) [LXS18, 2-(1H-imidazol-2-yl)-1-(1-(propylsulfonyl)pyrrolidin-3-yl)-1,6-dihydroimidazo[4,5-d]pyrrolo[2,3-b]pyridine]
10 to 100 nM | 10 to 100 nM | O=S(=O)(N1CCC(n2c(-c3ncc[nH]3)nc3cnc4[nH]ccc4c32)C1)C(F)(F)F (stereo not drawn) [LXS19, 2-(1H-imidazol-2-yl)-1-(1-((trifluoromethyl)sulfonyl)pyrrolidin-3-yl)-1,6-dihydroimidazo[4,5-d]pyrrolo[2,3-b]pyridine]
10 to 100 nM | < 10 nM | CCCS(=O)(=O)N1CCC(n2c(-c3cccc(O)c3)nc3cnc4[nH]ccc4c32)C1 (stereo not drawn) [LXS32, 3-(1-(1-(propylsulfonyl)pyrrolidin-3-yl)-1,6-dihydroimidazo[4,5-d]pyrrolo[2,3-b]pyridin-2-yl)phenol]
10 to 100 nM | 10 to 100 nM | C=CC(=O)N1CCC(n2c(-c3ccc(O)cc3O)nc3cnc4[nH]ccc4c32)C1 (stereo not drawn) [LXS33, 1-(3-(2-(2,4-Dihydroxyphenyl)imidazo[4,5-d]pyrrolo[2,3-b]pyridin-1(6H)-yl)pyrrolidin-1-yl)prop-2-en-1-one]
10 to 100 nM | 10 to 100 nM | O=S(=O)(C1CC1)N1CCC(n2c(-c3ccc(CO)o3)nc3cnc4[nH]ccc4c32)C1 (stereo not drawn) [LXS45, (5-(1-(1-(cyclopropylsulfonyl)pyrrolidin-3-yl)-1,6-dihydroimidazo[4,5-d]pyrrolo[2,3-b]pyridin-2-yl)furan-2-yl)methanol]
10 to 100 nM | < 10 nM | N#CCCn1cc(-n2c(-c3ccc(CO)o3)nc3cnc4[nH]ccc4c32)cn1 [LXS46, 3-(4-(2-(5-(Hydroxymethyl)furan-2-yl)imidazo[4,5-d]pyrrolo[2,3-b]pyridin-1(6H)-yl)-1H-pyrazol-1-yl)propanenitrile]
10 to 100 nM | 100 to 1000 nM | C[C@@H](O)c1nc2cnc3[nH]ccc3c2n1C1CCN(CC#N)C1 (stereo partly drawn) [LXS48, 2-(3-(2-((R)-1-Hydroxyethyl)imidazo[4,5-d]pyrrolo[2,3-b]pyridin-1(6H)-yl)pyrrolidin-1-yl)acetonitrile]
10 to 100 nM | 100 to 1000 nM | C[C@@H](O)c1nc2cnc3[nH]ccc3c2n1C1CCN(CCC#N)C1 (stereo partly drawn) [LXS49, 3-(3-(2-((R)-1-Hydroxyethyl)imidazo[4,5-d]pyrrolo[2,3-b]pyridin-1(6H)-yl)pyrrolidin-1-yl)propanenitrile]
10 to 100 nM | 10 to 100 nM | N#CCCN1CCC(n2c(-c3ccc(CO)o3)nc3cnc4[nH]ccc4c32)C1 (stereo not drawn) [LXS51, 3-(3-(2-(5-(Hydroxymethyl)furan-2-yl)imidazo[4,5-d]pyrrolo[2,3-b]pyridin-1(6H)-yl)pyrrolidin-1-yl)propanenitrile]
